Experimental data published in article PMC5218480 (PLoS ONE, 2017).

Test system: MV-4-11 cells
Assay: Gene expression microarray analysis (Affymetrix PrimeView) and GSEA
Type: cell-based, human
Parameters: RFU PODN (11730768_x_at) / Fold change /veh PODN (11730768_x_at) / RFU LINC00158 (11744669_a_at) / Fold change /veh LINC00158 (11744669_a_at) / RFU DUSP10 (11751237_a_at) / Fold change /veh DUSP10 (11751237_a_at) / RFU ID3 (11757404_x_at) / Fold change /veh ID3 (11757404_x_at) / RFU PLEKHG5 (11737974_s_at) / Fold change /veh PLEKHG5 (11737974_s_at) / RFU LRRC4B (11730491_at) / Fold change /veh LRRC4B (11730491_at) / RFU GIMAP4 (11747438_a_at) / Fold change /veh GIMAP4 (11747438_a_at) / RFU KRT8 (11758183_x_at) / Fold change /veh KRT8 (11758183_x_at) / RFU CNN1 (11734310_a_at) / Fold change /veh CNN1 (11734310_a_at) / RFU VPS37D (11726825_at) / Fold change /veh VPS37D (11726825_at) / RFU C10orf10 (11716522_x_at) / Fold change /veh C10orf10 (11716522_x_at) / RFU KIR2DL2 /// KIR2DL4 /// KIR2DL5A /// KIR2DL5B /// KIR2DS1 /// KIR2DS2 /// KIR2DS3 /// KIR2DS4 /// KIR3DL3 /// KIR3DL3 /// KIR3DS1 (11738374_at) / Fold change /veh KIR2DL2 /// KIR2DL4 /// KIR2DL5A /// KIR2DL5B /// KIR2DS1 /// KIR2DS2 /// KIR2DS3 /// KIR2DS4 /// KIR3DL3 /// KIR3DL3 /// KIR3DS1 (11738374_at) / RFU C1QL1 (11718748_at) / Fold change /veh C1QL1 (11718748_at) / RFU TMPRSS4 (11747572_a_at) / Fold change /veh TMPRSS4 (11747572_a_at) / RFU HAMP (11756126_x_at) / Fold change /veh HAMP (11756126_x_at) / RFU RNFT2 (11725882_a_at) / Fold change /veh RNFT2 (11725882_a_at) / RFU NR4A2 (11747474_a_at) / Fold change /veh NR4A2 (11747474_a_at) / RFU ABCC12 (11746883_a_at) / Fold change /veh ABCC12 (11746883_a_at) / RFU TMEM136 (11760407_x_at) / Fold change /veh TMEM136 (11760407_x_at) / RFU CLDN22 /// WWC2 (11732394_at) / Fold change /veh CLDN22 /// WWC2 (11732394_at) / RFU HLA-DPB1 (11760878_x_at) / Fold change /veh HLA-DPB1 (11760878_x_at) / RFU SPINT1 (11716480_a_at) / Fold change /veh SPINT1 (11716480_a_at) / RFU GAP43 (11754022_s_at) / Fold change /veh GAP43 (11754022_s_at) / RFU A4GNT (11735810_at) / Fold change /veh A4GNT (11735810_at) / RFU PRB3 (11715151_x_at) / Fold change /veh PRB3 (11715151_x_at) / RFU TUBB4B (11761932_at) / Fold change /veh TUBB4B (11761932_at) / RFU CAPN14 (11732068_a_at) / Fold change /veh CAPN14 (11732068_a_at) / RFU TMCC2 (11721928_a_at) / Fold change /veh TMCC2 (11721928_a_at) / RFU IRGQ (11745062_a_at) / Fold change /veh IRGQ (11745062_a_at) / RFU FAM174B (11720279_a_at) / Fold change /veh FAM174B (11720279_a_at) / RFU TMPRSS4 (11748680_a_at) / Fold change /veh TMPRSS4 (11748680_a_at) / RFU FAM212B (11763350_a_at) / Fold change /veh FAM212B (11763350_a_at) / RFU PLEKHG5 (11743358_a_at) / Fold change /veh PLEKHG5 (11743358_a_at) / RFU ZSCAN30 (11745921_a_at) / Fold change /veh ZSCAN30 (11745921_a_at) / RFU CMKLR1 (11741424_a_at) / Fold change /veh CMKLR1 (11741424_a_at) / RFU LOC101060620 /// MAPK8IP1 (11723275_at) / Fold change /veh LOC101060620 /// MAPK8IP1 (11723275_at) / RFU SPTSSB (11747773_x_at) / Fold change /veh SPTSSB (11747773_x_at) / RFU PRSS12 (11739890_at) / Fold change /veh PRSS12 (11739890_at) / RFU BIN1 (11741810_x_at) / Fold change /veh BIN1 (11741810_x_at) / RFU WNT11 (11732464_a_at) / Fold change /veh WNT11 (11732464_a_at) / RFU C10orf10 (11716521_a_at) / Fold change /veh C10orf10 (11716521_a_at) / RFU C5orf56 (11738089_at) / Fold change /veh C5orf56 (11738089_at) / RFU CYB561 (11721691_x_at) / Fold change /veh CYB561 (11721691_x_at) / RFU ANKRD19P (11752326_a_at) / Fold change /veh ANKRD19P (11752326_a_at) / RFU OR2T12 /// OR2T33 /// OR2T8 (11738714_s_at) / Fold change /veh OR2T12 /// OR2T33 /// OR2T8 (11738714_s_at) / RFU VCAN (11748164_a_at) / Fold change /veh VCAN (11748164_a_at) / RFU JSRP1 (11732532_at) / Fold change /veh JSRP1 (11732532_at) / RFU KRTAP10-11 (11738290_x_at) / Fold change /veh KRTAP10-11 (11738290_x_at) / RFU MYO3A (11730013_a_at) / Fold change /veh MYO3A (11730013_a_at) / RFU EBF3 (11725865_a_at) / Fold change /veh EBF3 (11725865_a_at) / RFU CAMK2N1 (11719241_x_at) / Fold change /veh CAMK2N1 (11719241_x_at) / RFU C5orf56 (11738088_a_at) / Fold change /veh C5orf56 (11738088_a_at) / RFU OLFML3 (11715873_a_at) / Fold change /veh OLFML3 (11715873_a_at) / RFU LOC100653217 /// NTM (11731650_a_at) / Fold change /veh LOC100653217 /// NTM (11731650_a_at) / RFU MAPK11 (11762145_a_at) / Fold change /veh MAPK11 (11762145_a_at) / RFU FIZ1 (11724087_x_at) / Fold change /veh FIZ1 (11724087_x_at) / RFU OASL (11726364_x_at) / Fold change /veh OASL (11726364_x_at) / RFU SOX15 (11748057_x_at) / Fold change /veh SOX15 (11748057_x_at) / RFU CD79A (11719716_a_at) / Fold change /veh CD79A (11719716_a_at) / RFU HIST1H1D (11736915_at) / Fold change /veh HIST1H1D (11736915_at) / RFU CASKIN2 (11723855_a_at) / Fold change /veh CASKIN2 (11723855_a_at) / RFU LOC730098 (11760151_x_at) / Fold change /veh LOC730098 (11760151_x_at) / RFU OR4N2 (11742367_at) / Fold change /veh OR4N2 (11742367_at) / RFU PRRT2 (11749266_a_at) / Fold change /veh PRRT2 (11749266_a_at) / RFU SNX32 (11753110_a_at) / Fold change /veh SNX32 (11753110_a_at) / RFU CDHR5 (11726645_a_at) / Fold change /veh CDHR5 (11726645_a_at) / RFU RCAN1 (11760418_a_at) / Fold change /veh RCAN1 (11760418_a_at) / RFU FAM167A (11723789_a_at) / Fold change /veh FAM167A (11723789_a_at) / RFU FAM26E (11764081_at) / Fold change /veh FAM26E (11764081_at) / RFU ISYNA1 (11749810_s_at) / Fold change /veh ISYNA1 (11749810_s_at) / RFU ACY1 (11761880_at) / Fold change /veh ACY1 (11761880_at) / RFU 11764098_at / Fold change /veh 11764098_at / RFU SAMD14 (11745864_x_at) / Fold change /veh SAMD14 (11745864_x_at) / RFU NPB (11741838_a_at) / Fold change /veh NPB (11741838_a_at) / RFU TMPRSS6 (11731388_a_at) / Fold change /veh TMPRSS6 (11731388_a_at) / RFU KRTAP10-2 (11738614_at) / Fold change /veh KRTAP10-2 (11738614_at) / RFU ARHGAP8 /// PRR5-ARHGAP8 (11727945_x_at) / Fold change /veh ARHGAP8 /// PRR5-ARHGAP8 (11727945_x_at) / RFU KRTAP5-7 /// NADSYN1 (11734609_at) / Fold change /veh KRTAP5-7 /// NADSYN1 (11734609_at) / RFU RASL12 (11751679_a_at) / Fold change /veh RASL12 (11751679_a_at) / RFU CDKN2B (11736163_a_at) / Fold change /veh CDKN2B (11736163_a_at) / RFU PRF1 (11729649_at) / Fold change /veh PRF1 (11729649_at) / RFU, ZNF638 /// ZNF638-IT1 / Fold change vs veh, ZNF638 /// ZNF638-IT1 / RFU, PANK3 / Fold change vs veh, PANK3 / RFU, SH3YL1 / Fold change vs veh, SH3YL1 / RFU, ZEB2 / Fold change vs veh, ZEB2 / RFU, NRIP1 / Fold change vs veh, NRIP1 / RFU, PTTG1IP / Fold change vs veh, PTTG1IP / RFU, CAPN2 / Fold change vs veh, CAPN2 / RFU, MED14 / Fold change vs veh, MED14 / RFU, SNORA58 / Fold change vs veh, SNORA58 / RFU, C1orf63 / Fold change vs veh, C1orf63 / RFU, LRRFIP1 / Fold change vs veh, LRRFIP1 / RFU, NDUFAF7 / Fold change vs veh, NDUFAF7 / RFU, SLC12A2 / Fold change vs veh, SLC12A2 / RFU, IBTK / Fold change vs veh, IBTK / RFU, ESF1 / Fold change vs veh, ESF1 / Fold change vs veh, TMEM50B / RFU, TAOK1 / Fold change vs veh, TAOK1 / RFU, ACBD3 / Fold change vs veh, ACBD3 / RFU, TMA16 / Fold change vs veh, TMA16 / RFU, RWDD3 / Fold change vs veh, RWDD3 / RFU, BCAT1 / Fold change vs veh, BCAT1 / RFU, EDEM3 / Fold change vs veh, EDEM3 / RFU, TMEM33 / Fold change vs veh, TMEM33 / RFU, WDR75 / Fold change vs veh, WDR75 / RFU, AHCTF1 / Fold change vs veh, AHCTF1 / RFU, TFRC / Fold change vs veh, TFRC / RFU, ZDHHC17 / Fold change vs veh, ZDHHC17 / RFU, NOM1 / Fold change vs veh, NOM1 / RFU, ARL8B / Fold change vs veh, ARL8B / RFU, ZBTB11 / Fold change vs veh, ZBTB11 / RFU, TAMM41 / Fold change vs veh, TAMM41 / RFU, KIAA1704 /// LOC100996395 / Fold change vs veh, KIAA1704 /// LOC100996395 / RFU, ING1 / Fold change vs veh, ING1 / RFU, TRMT61B / Fold change vs veh, TRMT61B / RFU, FUBP3 / Fold change vs veh, FUBP3 / RFU, TP53 / Fold change vs veh, TP53 / RFU, TNKS2 / Fold change vs veh, TNKS2 / RFU, ZFP14 / Fold change vs veh, ZFP14 / RFU, ACTR2 / Fold change vs veh, ACTR2 / RFU, PPP3R1 / Fold change vs veh, PPP3R1 / RFU, PIK3R1 / Fold change vs veh, PIK3R1 / RFU, HNRNPA1 / Fold change vs veh, HNRNPA1 / RFU, RNF170 / Fold change vs veh, RNF170 / RFU, ZNF28 / Fold change vs veh, ZNF28 / RFU, RNGTT / Fold change vs veh, RNGTT / RFU, OGT / Fold change vs veh, OGT / RFU, BRD1 / Fold change vs veh, BRD1 / RFU, MARS / Fold change vs veh, MARS / RFU, ZNF655 / Fold change vs veh, ZNF655 / RFU, FAHD1 / Fold change vs veh, FAHD1 / RFU, BDP1 / Fold change vs veh, BDP1 / RFU, LRRCC1 / Fold change vs veh, LRRCC1 / RFU, ARID1A / Fold change vs veh, ARID1A / RFU, ZNF146 / Fold change vs veh, ZNF146 / RFU, ZNF330 / Fold change vs veh, ZNF330 / RFU, GPN3 / Fold change vs veh, GPN3 / RFU, C9orf123 / Fold change vs veh, C9orf123 / RFU, N4BP2L2 / Fold change vs veh, N4BP2L2 / RFU, ARFIP1 / Fold change vs veh, ARFIP1 / RFU, FAM179B / Fold change vs veh, FAM179B / RFU, BCL10 / Fold change vs veh, BCL10 / RFU, UHRF1BP1L / Fold change vs veh, UHRF1BP1L / RFU, BET1 / Fold change vs veh, BET1 / RFU, CNOT2 / Fold change vs veh, CNOT2 / RFU, ZNF268 / Fold change vs veh, ZNF268 / Fold change vs veh, ZNF507 / RFU, DGCR2 / Fold change vs veh, DGCR2 / RFU, WDSUB1 / Fold change vs veh, WDSUB1 / Fold change vs veh, HSP90B1 /// MIR3652 / RFU, ADSS / Fold change vs veh, ADSS / RFU, GK / Fold change vs veh, GK / RFU, ZNF148 / Fold change vs veh, ZNF148 / RFU, TAF9 / Fold change vs veh, TAF9 / RFU, SLC1A5 / Fold change vs veh, SLC1A5 / RFU, SLMO2 / Fold change vs veh, SLMO2 / RFU, ABCC4 / Fold change vs veh, ABCC4 / RFU, LOC101060439 /// RAP1B / Fold change vs veh, LOC101060439 /// RAP1B / RFU, RFX7 / Fold change vs veh, RFX7 / RFU, GTPBP10 / Fold change vs veh, GTPBP10 / RFU, CNEP1R1 / Fold change vs veh, CNEP1R1 / RFU, BIVM-ERCC5 /// ERCC5 / Fold change vs veh, BIVM-ERCC5 /// ERCC5 / RFU, ILF3 / Fold change vs veh, ILF3 / RFU 11762660_at / Fold change /veh 11762660_at / RFU VCAN (11757783_s_at) / Fold change /veh VCAN (11757783_s_at) / RFU DDX43 (11728927_at) / Fold change /veh DDX43 (11728927_at) / RFU KRT8 (11758188_x_at) / Fold change /veh KRT8 (11758188_x_at) / RFU NKD1 (11759106_at) / Fold change /veh NKD1 (11759106_at) / RFU SRD5A1 (11742802_a_at) / Fold change /veh SRD5A1 (11742802_a_at) / RFU TPSAB1 /// TPSB2 (11721975_s_at) / Fold change /veh TPSAB1 /// TPSB2 (11721975_s_at) / RFU GSTM3 (11746129_a_at) / Fold change /veh GSTM3 (11746129_a_at) / RFU IL23R (11737362_x_at) / Fold change /veh IL23R (11737362_x_at) / RFU TMEM51 (11727254_a_at) / Fold change /veh TMEM51 (11727254_a_at) / RFU PIWIL2 (11732686_x_at) / Fold change /veh PIWIL2 (11732686_x_at) / RFU ORM1 (11744905_x_at) / Fold change /veh ORM1 (11744905_x_at) / RFU CCDC152 (11743942_at) / Fold change /veh CCDC152 (11743942_at) / RFU ECM1 (11717891_a_at) / Fold change /veh ECM1 (11717891_a_at) / RFU IL23R (11748794_a_at) / Fold change /veh IL23R (11748794_a_at) / RFU TNFAIP8L3 (11732012_x_at) / Fold change /veh TNFAIP8L3 (11732012_x_at) / RFU MBOAT4 (11741988_at) / Fold change /veh MBOAT4 (11741988_at) / RFU 11764193_at / Fold change /veh 11764193_at / RFU TMEM53 (11763286_at) / Fold change /veh TMEM53 (11763286_at) / RFU MAGEB2 (11727129_at) / Fold change /veh MAGEB2 (11727129_at) / RFU TMEM200A (11744735_a_at) / Fold change /veh TMEM200A (11744735_a_at) / RFU CCDC152 (11751479_a_at) / Fold change /veh CCDC152 (11751479_a_at) / RFU FAM211A (11726209_a_at) / Fold change /veh FAM211A (11726209_a_at) / RFU RGS16 (11746705_a_at) / Fold change /veh RGS16 (11746705_a_at) / RFU VCAN (11755009_s_at) / Fold change /veh VCAN (11755009_s_at) / RFU RHOB (11743442_s_at) / Fold change /veh RHOB (11743442_s_at) / RFU RGS16 (11720943_a_at) / Fold change /veh RGS16 (11720943_a_at) / RFU RGS16 (11720944_at) / Fold change /veh RGS16 (11720944_at) / RFU, VPS4B / Fold change vs veh, VPS4B / RFU, CREB1 / Fold change vs veh, CREB1 / RFU, DNAJC13 / Fold change vs veh, DNAJC13 / RFU, GNAQ / Fold change vs veh, GNAQ / RFU, CDK5R1 / Fold change vs veh, CDK5R1 / RFU, ZRANB3 / Fold change vs veh, ZRANB3 / RFU, CUL4A / Fold change vs veh, CUL4A / RFU, CCNY / Fold change vs veh, CCNY / RFU, UFL1 / Fold change vs veh, UFL1 / RFU, COG3 / Fold change vs veh, COG3 / RFU, DIAPH2 / Fold change vs veh, DIAPH2 / RFU, SKA2 / Fold change vs veh, SKA2 / RFU, AFF3 / Fold change vs veh, AFF3 / RFU, LMF1 / Fold change vs veh, LMF1 / RFU, IPO11 / Fold change vs veh, IPO11 / RFU, DFFB / Fold change vs veh, DFFB / RFU, FOXP1 / Fold change vs veh, FOXP1 / RFU, CARD8 / Fold change vs veh, CARD8 / RFU, STRN3 / Fold change vs veh, STRN3 / RFU, ADK / Fold change vs veh, ADK / RFU, RASSF2 / Fold change vs veh, RASSF2 / RFU, WIPF1 / Fold change vs veh, WIPF1 / RFU, LARP1B / Fold change vs veh, LARP1B / RFU, RASA1 / Fold change vs veh, RASA1 / RFU, RB1 / Fold change vs veh, RB1 / RFU, PPFIA1 / Fold change vs veh, PPFIA1 / RFU, MAT2A / Fold change vs veh, MAT2A / RFU, CCT5 / Fold change vs veh, CCT5 / RFU, WDR92 / Fold change vs veh, WDR92 / RFU, CUX1 / Fold change vs veh, CUX1 / RFU, TTC7A / Fold change vs veh, TTC7A / RFU, TMEM135 / Fold change vs veh, TMEM135 / RFU, DEPTOR / Fold change vs veh, DEPTOR / RFU, CPM / Fold change vs veh, CPM / RFU, DNAJB6 / Fold change vs veh, DNAJB6 / RFU, CACNA2D3 / Fold change vs veh, CACNA2D3 / RFU, DTX4 / Fold change vs veh, DTX4 / RFU, TFCP2 / Fold change vs veh, TFCP2 / RFU, GMCL1 /// GMCL1P1 / Fold change vs veh, GMCL1 /// GMCL1P1 / RFU, AEBP2 / Fold change vs veh, AEBP2 / RFU, SNHG1 /// SNORD22 /// SNORD25 /// SNORD26 /// SNORD27 /// SNORD28 /// SNORD29 /// SNORD31 / Fold change vs veh, SNHG1 /// SNORD22 /// SNORD25 /// SNORD26 /// SNORD27 /// SNORD28 /// SNORD29 /// SNORD31 / Fold change (Aza/veh), C12orf56 (ProbeSet 11735607_a_at) / Fold change (ACY-1035/veh), C12orf56 (ProbeSet 11735607_a_at) / Fold change (Aza/veh), FGFR1OP (ProbeSet 11751329_s_at) / Fold change (ACY-1035/veh), FGFR1OP (ProbeSet 11751329_s_at) / Fold change (Aza/veh), VPS36 (ProbeSet 11739960_a_at) / Fold change (ACY-1035/veh), VPS36 (ProbeSet 11739960_a_at) / RFU SYPL1 (11715823_x_at) / Fold change /veh SYPL1 (11715823_x_at) / RFU IGFBP7 (11715501_s_at) / Fold change /veh IGFBP7 (11715501_s_at) / RFU REEP3 (11722064_at) / Fold change /veh REEP3 (11722064_at) / RFU IGLL1 (11728026_x_at) / Fold change /veh IGLL1 (11728026_x_at): dose or concentration left out as unconfirmed
Conditions: ProbeSet 11747937_a_at; LIST D

## Nc1ccc(-c2cccs2)cc1NC(=O)c1ccc2c(c1)cc(C1CC1)n2CCN1CCOCC1 [ACY-1035]
  Fold change vs veh, DNAJB6: 0.86
